This is an account of results in article PMC9394284, “Discovery of Novel Dual Adenosine A2A and A1 Receptor Antagonists with 1H-Pyrazolo[3,4-d]pyrimidin-6-amine Core Scaffold as Anti-Parkinson’s Disease Agents” (Pharmaceuticals, 2022).

Series [1] is described as follows: metabolic stability in cryopreserved rat hepatocytes. The method, then:
(§1) Metabolic stability of 11o was determined in cryopreserved hepatocytes from mice, rats, dogs, monkeys and human according to the SOPs of Frontage Laboratories Inc. Briefly, cryopreserved hepatocytes for pre-clinical animals and for human (BioIVT, Westbury, NY, USA) were thawed in a 37 °C water bath with gentle shaking until ice had almost melted. The suspensions were immediately transferred to a centrifuge tube (50 mL) containing pre-warmed thawing media at 37 °C with gentle handshaking to prevent the cells from settling. Cell suspensions were centrifuged at 50× g and 4 °C for 5 min. The supernatant was discarded and the pellets were resuspended in prewarmed incubation media (5 mL) at 37 °C. The percentage of viable cells in the suspension was determined by Trypan blue staining method to ensure viability of ≥70 %. […] The samples were centrifuged and aliquots of the supernatant were analyzed for parent compounds by LC/MS/MS using suitable multiple reaction monitoring (MRM) transitions. […] The disappearance of 11o and midazolam was monitored by LC/MS/MS (MRM) analysis of the hepatocyte extracts at each time point. The peak area ratio of the analyte to internal standard was obtained for each sample and the rate of disappearance of 11o was assessed by comparing the peak area ratios at various time points to the peak area ratio obtained at t = 0. The t1/2 is obtained (using the linear portion of semi-log plot of the area ratio vs. time) and the CLint values determined using well-stirred model.

The next series addresses T1, hA1 receptor (Homo sapiens, UniProt P30542).
T1 sequence (P30542 1-326): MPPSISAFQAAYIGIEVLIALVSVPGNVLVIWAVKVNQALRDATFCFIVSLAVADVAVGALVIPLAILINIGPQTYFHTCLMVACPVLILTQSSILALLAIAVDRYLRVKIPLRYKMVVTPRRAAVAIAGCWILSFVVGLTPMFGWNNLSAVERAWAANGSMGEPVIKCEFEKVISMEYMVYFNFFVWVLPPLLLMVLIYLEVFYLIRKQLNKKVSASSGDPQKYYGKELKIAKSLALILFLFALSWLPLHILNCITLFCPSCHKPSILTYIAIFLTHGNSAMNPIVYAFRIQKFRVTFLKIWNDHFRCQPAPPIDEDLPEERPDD
The series can be described thus: radioligand binding to human A1 receptors, CHO-K1 membranes, [3H]DPCPX. The method, then:
The radioligand-binding assays for adenosine receptors were performed at Eurofins Discovery Services (Panlabs, Taiwan). Briefly, stock solutions of the compounds were prepared in DMSO and further diluted with the incubation buffer to the desired concentration. Final DMSO concentrations in the assay were 1.0%. For adenosine A1 screening, a 10 μg aliquots of membrane preparations from human recombinant CHO-K1 cells stably expressing A1 receptors (CHO-K1-hA1AR clone3, EPDST, R200510) were incubated with 1 nM [^3H]DPCPX in incubation buffer (20 mM HEPES, pH 7.4, 10 mM MgCl2, 100 mM NaCl 1.40 nM) for 90 min at 25 °C. Nonspecific binding was estimated in the presence of 100 μM R(-)-PIA. Membranes were filtered and washed 3 times and the filters were counted to determine specifically bound [^3H]DPCPX. Chemical compounds were screened at 10 μM. For A2A screening, membrane preparations from human recombinant HEK-293 cells stably expressing A2A receptors (PerkinElmer, RBHA2AM) were incubated with 0.05 μM [^3H]CGS-21680 in incubation buffer (50 mM Tris-HCl, pH 7.4, 10 mM MgCl2, 1 mM EDTA, 2 U/mL Adenosine Deaminase) for 90 min at 25 °C. Nonspecific binding was estimated in the presence of 50.0 μM NECA. Membranes were filtered and washed 3 times and the filters were counted to determine [^3H]CGS-21680 specifically bound. For A2B screening, membrane preparations from human recombinant HEK-293 cells stably expressing A2B receptors (PerkinElmer, ES-013-M) were incubated with 1.6 nM [^3H]MRS1754 in incubation buffer (50 mM Tris-HCl, pH 6.5, 5 mM MgCl2, 1 mM EDTA, 0.01 % Bacitracin) for 90 min at 25 °C. Nonspecific binding was estimated in the presence of 100 μM NECA. Membranes were filtered and washed 3 times and the filters were counted to determine [^3H]MRS1754 specifically bound. For A3 screening, membrane preparations from human recombinant CHO-K1 cells stably expressing A3 receptors (PerkinElmer, ES-012-M) were incubated with 0.5 nM [^125I]AB-MECA in incubation buffer (25 mM HEPES, pH 7.4, 5 mM MgCl2, 1 mM CaCl2, 0.1 % BSA) for 60 min at 25 °C. Nonspecific binding was estimated in the presence of 1.0 μM IB-MECA.
IC50 values were determined by a nonlinear, least-squares regression analysis using MathIQ^TM (ID Business Solutions Ltd., Guildford, UK). Where inhibition constants (Ki) were presented, the Ki values were calculated using Cheng and Prusoff equation [18] using the observed IC50 of the compound, the concentration of radioligand employed in the assay, and the historical values for the KD of the ligand (obtained experimentally at Eurofins Panlabs, Inc.). The Hill coefficient (nH), which defines the slope of the competitive binding curve, was calculated using MathIQ^TM.

The nature of series [2]: metabolic stability in cryopreserved human hepatocytes. The method, then:
as §1

Series [3] in a line: metabolic stability in cryopreserved mouse hepatocytes. The method, then:
as §1

The mark [4] stands for this setting: Sprague Dawley, rat, cryopreserved hepatocytes in suspension.
Where [5] appears, read: average of duplicate experiments.
Setting [6] is: human, cryopreserved hepatocytes in suspension.
[7] abbreviates: CD-1, mouse, cryopreserved hepatocytes in suspension.

As a reminder, the CLint scaled is a measure of how fast metabolising enzymes remove a compound, apart from limits set by blood flow. Usually half-life stands for the time in which the quantity being followed falls by half. As usually defined, the hepatocyte CLint is the rate of metabolic loss divided by the concentration. A low value points to slow turnover. In general, IC50 refers to the concentration that gives 50% inhibition. For orientation: Ki means a measure of affinity in units of concentration, obtained from inhibition or displacement. Lower therefore signals higher affinity. On to `Cc1cc(Cn2ncc3c(-c4cccc(C#N)c4F)nc(N)nc32)ccc1N` [11o, 3-(6-Amino-1-(4-amino-3-methylbenzyl)-1H-pyrazolo[3,4-d]pyrimidin-4-yl)-2-fluorobenzonitrile], for which the CLint scaled at 1 μM in series [1] (setting [4]) was 69.2 mL/min/kg; in series [2] (human, cryopreserved hepatocytes in suspension, Extrapolated Clearance, CL, human hepatocytes, 1 μM 11o), 9.6 mL/min/kg; in series [3] (setting [7]), 115 mL/min/kg. Further, the results for the half-life at 1 μM in series [1] (setting [4]), in series [2] (setting [6]) and in series [3] (setting [7]) were 0.782 h, 3.07 h and 1.18 h, respectively. Besides, the hepatocyte CLint at 1 μM in series [1] (setting [4]) was 14.8 µL/min/1e6 cells; in series [2] (setting [6]) it was 3.8 µL/min/1e6 cells; in series [3] (setting [7]) it was 9.8 µL/min/1e6 cells. Besides, the “Intrinsic Clearance” value is listed as 0.0148 mL/min/10^6 Cells in series [1] (rat hepatocytes, 1 μM 11o); 0.00377 mL/min/10^6 Cells in series [2] (human hepatocytes, 1 μM 11o); 0.00977 mL/min/10^6 Cells in series [3] (mouse hepatocytes, 1 μM 11o). On hA1 receptor, the “nH (Hill coefficient), A1” value was 1.17. At hA1 receptor (setting [5]), the IC50 worked out at 94 nM. The Ki on hA1 receptor (setting [5]) stood at 55 nM. Further, the “Extrapolated Clearance, CL” value in series [2] (human hepatocytes, 1 μM 11o) is 9.58 mL/min/kg. Also, the “CLint in human hepatocytes relative to midazolam” value in series [2] (human, hepatocytes) is reported as “less than 40 % of midazolam”.
